In US10745395B2, “Compounds for their use as drugs for the treatment and/or the prevention of infection(s) caused by biofilm-forming bacteria” (CENTRE NATIONAL DE LA RECHERCHE SCIENTIFIQUE, priority 2014, dated 2020):

Tests used:
Type in all cases: cell-based, Pseudomonas aeruginosa
[1] = tested on: P. aeruginosa strain PAR 50 biofilm; assay: Mature biofilm model, Congo red staining; conditions: for absorbance (Congo red, biofilm development): mature biofilm, compound added 48 h after induction of biofilm
Experimental: (§1) Biofilm quantity was determined using Congo red dye according to a modified procedure described by Allison et al. (Allison G C, Sutherland I W. A staining technique for bacteria and its correlation to extracellular carbohydrate production. J Microbiol Meth 2, 93-99 (1984)).
(§2) Briefly, at different time points (0, 6, 18, 24, 48 and 72 hours), the culture medium was gently removed from wells by using the pipette and immediately 200 μl of 0.1% Congo red solution was added. The plates were left for 30 minutes at room temperature and then 10 minutes before the end of staining, the plate was centrifuged for 10 minutes at 2000 rpm and then washed twice with buffered saline to remove unbound dye. Absorbance was measured at λ=492 nm wavelength using spectrophotometer (Awarness Technology Inc., Palm City, Fla., USA). All measurements were performed in triplicates and mean values±SD are given.
(§3) Mature biofilm model: the tested substances were added 48 hours after adherence of bacteria to the wells in a 96-well plate. The growth conditions of P. aeruginosa were exactly the same, as described above for the early biofilm model.
(§4) After the addition of iminosugars (compounds 1, 2, 3 and 4), the biofilm formation and the number of viable bacteria were checked in the following time intervals: 48, 48.5, 56, 72, 96 hours.

[2] = tested on: P. aeruginosa strain PAR 5 biofilm; assay: Mature biofilm model, Congo red staining; conditions: for absorbance (Congo red, biofilm development): mature biofilm, compound added 48 h after induction of biofilm
Experimental: as §1, §2, §3, §4

[3] = tested on: P. aeruginosa strain PAR 20 biofilm; assay: Mature biofilm model, Congo red staining; conditions: for absorbance (Congo red, biofilm development): mature biofilm, compound added 48 h after induction of biofilm
Experimental: as §1, §2, §3, §4

[4] = tested on: P. aeruginosa strain PAR 50 biofilm; assay: Reduction of biofilm growth (percent vs culture control)
Source text: (§5) FIG. 4C represents the effect of the tested compounds (1, 2, 3 and 4) on exopolysaccharide biosynthesis in the early stages and mature P. aeruginosa biofilm formation, strain PAR 50. The abscissa represents the time (in hours) in order to differentiate early biofilm and mature biofilm, and the ordinate represents the percentage of the biofilm reduction.
(§6) Early biofilm model: formation of early biofilm under influence of the tested substances was observed by filling wells of a 96-well plate with 20 μl of P. aeruginosa suspension and 180 μl of TSB, as described above. Tested iminosugars (compounds 1, 2, 3 and 4) were added immediately after setting-up the bacteria at a final concentration of 0.9 mM. Then, the plate was gently mixed and incubated for 48 hours at 37° C.
as §3
(§7) The effect of the tested compounds (1, 2, 3 and 4) on the reduction of biofilm growth has also been studied on the three P. aeruginosa strains PAR 5, PAR 20, PAR 50.
(§8) (Percent decrease in biofilm thickness was obtained as a mean value from 3 consecutive measurements of the Congo Red stained biofilm using spectrophotometer after addition of the tested iminosugars in comparison to control regarded as 100%).

[5] = tested on: P. aeruginosa strain PAR 5 biofilm; assay: as above
Source text: as §5, with “4A” for “4C”, “5.” for “50.”
as §6, §3, §7, §8

[6] = tested on: P. aeruginosa strain PAR 20 biofilm; assay: as above
Source text: as §5, with “4B” for “4C”, “20.” for “50.”
as §6, §3, §7, §8

[7] = tested on: P. aeruginosa strain PAR 50 biofilm; assay: Early biofilm model, Congo red staining; conditions: for absorbance (Congo red, biofilm formation): early biofilm, 0.9 mM, 492 nm
Experimental: (§9) P. aeruginosa biofilm was set-up in sterile plastic 96-well plates with adherent surface (Greiner Bio-One, USA).
(§10) Twenty microliter quantities of the bacterial stock suspensions, prepared as described above, were added to each well followed with 180 μl of sterile TSB. Final concentration of the bacteria was 1×10^8 CFU/ml.
(§11) The plates were centrifuged for 10 minutes at 2000 rpm to sediment bacteria on the bottom of each well and then incubated for 72 hours (37° C., aerobic conditions).
as §1, §2, §6
(§12) Biofilm formation and the number of viable bacteria were checked in parallel in the following time intervals: 0, 0.5, 8, 24, 48 hours, in accordance with the procedure described above. Biofilm thickness was estimated by staining it with Cango Red and measuring optical density while number of viable bacteria was performed using the standard viable count method. (Allison G C, Sutherland I W. A staining technique for bacteria and its correlation to extracellular carbohydrate production. J Microbiol Meth 2, 93-99 (1984)).
(§13) P. aeruginosa suspension cultures in TSB broth alone were used as a control.

[8] = tested on: P. aeruginosa strain PAR 5 biofilm; assay: Early biofilm model, Congo red staining; conditions: for absorbance (Congo red, biofilm formation): 0.9 mM, 492 nm
Experimental: as §9, §10, §11, §1, §2, §6, §12, §13

[9] = tested on: P. aeruginosa strain PAR 20 biofilm; assay: Early biofilm model, Congo red staining; conditions: for absorbance (Congo red, biofilm formation): early biofilm, 0.9 mM, 492 nm
Experimental: as §9, §10, §11, §1, §2, §6, §12, §13

[10] = tested on: P. aeruginosa strain PAR 20; assay: Number of viable bacteria in early and mature biofilm (viable count)
Experimental: as §12, §4
(§14) Numbers of viable bacteria contained in the early and mature biofilm were estimated on separate plates with wells filled with tested P. aeruginosa strains as described above (PAR 5, PAR 20, PAR 50).
(§15) At the same time intervals, biofilm content in each well was removed and mixed by multiple pippeting and transferred to sterile tubes. Then decimal dilutions of the bacterial suspension were made in TSB broth, plated on McConkey Agar (Oxoid), and incubated at 37° C. for 24 hours.
(§16) Numbers of colonies grown on platter were counted and total numbers of the viable bacteria calculated as colony forming units (CFU) per ml.
(§17) The results depict logs of CFU/ml for three P. aeruginosa strains: PAR 5, PAR 20 and PAR 50 measured at different time intervals (0 hours, 8 hours, 24 hours, 48 hours, 56 hours, 72 hours and 96 hours). The detection limit is 100 CFU/ml.

[11] = tested on: P. aeruginosa strain PAR 50; assay: as above
Experimental: as §12, §4, §14, §15, §16, §17

[12] = tested on: P. aeruginosa strain PAR 5; assay: as above
Experimental: as §12, §4, §14, §15, §16, §17

[13] = in comparison with culture control

SMILES: OCC(O)C[C@H]1NC[C@H](O)[C@H](O)[C@H]1O (stereo partly drawn) [Compound 2, β-1-C-(2,3-dihydroxypropyl)-1,5-dideoxy-1,5-imino-L-arabinitol]
- influence on mature biofilm formation [1]: weak influence
- absorbance (Congo red, biofilm development) ([1]; 48 hours): about 2.0 a.u.
- absorbance (Congo red, biofilm development) ([1]; 56 hours): about 1.75 a.u.
- absorbance (Congo red, biofilm development) ([1]; 72 hours): about 1.75 a.u.
- absorbance (Congo red, biofilm development) ([1]; 96 hours): about 2.0 a.u.
- influence on mature biofilm formation [2]: weak influence
- absorbance (Congo red, biofilm development) ([2]; 48 hours): about 0.75 a.u.
- absorbance (Congo red, biofilm development) ([2]; 56 hours): about 1.0 a.u.
- absorbance (Congo red, biofilm development) ([2]; 72 hours): about 1.25 a.u.
- absorbance (Congo red, biofilm development) ([2]; 96 hours): about 1.5 a.u.
- influence on mature biofilm formation [3]: weak influence
- absorbance (Congo red, biofilm development) ([3]; 48 hours): about 0.6 a.u.
- absorbance (Congo red, biofilm development) ([3]; 56 hours): about 0.7 a.u.
- absorbance (Congo red, biofilm development) ([3]; 72 hours): about 1.1 a.u.
- absorbance (Congo red, biofilm development) ([3]; 96 hours): about 2.0 a.u.
- reduction of biofilm growth ([4]; 8 hours of incubation): about 50%
- reduction of biofilm growth ([4]; 24 hours of incubation): about 70%
- reduction of biofilm growth ([4]; 48 hours of incubation): about 0%
- reduction of biofilm growth ([4]; 72 hours of incubation): about 20%
- effect on biofilm growth ([4]; notably an early biofilm): can reduce the biofilm growth
- reduction of biofilm growth ([5]; 8 hours of incubation): about 90%
- reduction of biofilm growth ([5]; 24 hours of incubation): about 90%
- reduction of biofilm growth ([5]; 48 hours of incubation): about 25%
- reduction of biofilm growth ([5]; 72 hours of incubation): about 10%
- effect on biofilm growth ([5]; notably an early biofilm): can reduce the biofilm growth
- reduction of biofilm growth ([6]; 8 hours of incubation): about 45%
- reduction of biofilm growth ([6]; 24 hours of incubation): about 45%
- reduction of biofilm growth ([6]; 48 hours of incubation): about 0%
- reduction of biofilm growth ([6]; 72 hours of incubation): about 0%
- effect on biofilm growth ([6]; notably an early biofilm): can reduce the biofilm growth
- absorbance (Congo red, biofilm formation) ([7]; 8 hours): about 0.8 a.u.
- absorbance (Congo red, biofilm formation) ([7]; 24 hours): about 0.7 a.u.
- absorbance (Congo red, biofilm formation) ([7]; 48 hours): about 1.1 a.u.
- effect on formation of an early biofilm [7, 13]: inhibit the formation of an early biofilm
- biofilm formation at 8 hours, 24 hours and 48 hours ([8]; early biofilm): no biofilm formation
- absorbance (Congo red, biofilm formation) ([8]; early biofilm, 8 hours): about 0.25 a.u.
- absorbance (Congo red, biofilm formation) ([8]; early biofilm, 24 hours): about 0.25 a.u.
- absorbance (Congo red, biofilm formation) ([8]; early biofilm, 48 hours): about 0.25 a.u.
- effect on formation of an early biofilm [8, 13]: inhibit the formation of an early biofilm
- absorbance (Congo red, biofilm formation) ([9]; 8 hours): about 0.75 a.u.
- absorbance (Congo red, biofilm formation) ([9]; 24 hours): about 0.9 a.u.
- absorbance (Congo red, biofilm formation) ([9]; 48 hours): about 0.9 a.u.
- effect on formation of an early biofilm [9, 13]: inhibit the formation of an early biofilm
- number of viable P. aeruginosa ([10]; early biofilm, 0 h): 2 × 10^6 CFU/ml
- number of viable P. aeruginosa ([10]; early biofilm, 8 h): 4 × 10^7 CFU/ml
- number of viable P. aeruginosa ([10]; early biofilm, 24 h): 3 × 10^8 CFU/ml
- number of viable P. aeruginosa ([10]; early biofilm, 48 h): 1 × 10^9 CFU/ml
- number of viable P. aeruginosa ([10]; mature biofilm, 56 h): 4 × 10^8 CFU/ml
- number of viable P. aeruginosa ([10]; mature biofilm, 72 h): 3 × 10^7 CFU/ml
- number of viable P. aeruginosa ([10]; mature biofilm, 96 h): 3 × 10^8 CFU/ml
- number of viable P. aeruginosa ([11]; early biofilm, 0 h): 3 × 10^7 CFU/ml
- number of viable P. aeruginosa ([11]; early biofilm, 8 h): 2 × 10^8 CFU/ml
- number of viable P. aeruginosa ([11]; early biofilm, 24 h): 7 × 10^8 CFU/ml
- number of viable P. aeruginosa ([11]; early biofilm, 48 h): 1 × 10^8 CFU/ml
- number of viable P. aeruginosa ([11]; mature biofilm, 56 h): 6 × 10^9 CFU/ml
- number of viable P. aeruginosa ([11]; mature biofilm, 72 h): 1 × 10^9 CFU/ml
- number of viable P. aeruginosa ([11]; mature biofilm, 96 h): 9 × 10^9 CFU/ml
- number of viable P. aeruginosa ([12]; early biofilm, 0 h): 8 × 10^6 CFU/ml
- number of viable P. aeruginosa ([12]; early biofilm, 8 h): 2 × 10^7 CFU/ml
- number of viable P. aeruginosa ([12]; early biofilm, 24 h): 1 × 10^7 CFU/ml
- number of viable P. aeruginosa ([12]; early biofilm, 48 h): 1 × 10^7 CFU/ml
- number of viable P. aeruginosa ([12]; mature biofilm, 56 h): 4 × 10^8 CFU/ml
- number of viable P. aeruginosa ([12]; mature biofilm, 72 h): 2 × 10^8 CFU/ml
- number of viable P. aeruginosa ([12]; mature biofilm, 96 h): 5 × 10^8 CFU/ml
